Measured values as given in patent publication US9187523B2 (priority 2006, dated 2015).

Biological target: plasminogen activator (Pla) (Yersinia pestis, UniProt P17811)
Assay type: biochemical

Chain of plasminogen activator (Pla) (P17811 21-312 limits assumed): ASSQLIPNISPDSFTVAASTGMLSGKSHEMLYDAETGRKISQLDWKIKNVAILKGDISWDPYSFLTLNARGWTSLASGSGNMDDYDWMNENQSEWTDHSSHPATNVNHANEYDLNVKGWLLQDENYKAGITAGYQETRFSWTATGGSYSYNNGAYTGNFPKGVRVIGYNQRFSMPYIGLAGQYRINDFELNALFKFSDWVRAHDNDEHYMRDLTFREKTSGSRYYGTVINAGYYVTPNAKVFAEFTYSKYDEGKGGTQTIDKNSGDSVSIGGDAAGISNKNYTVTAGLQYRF

With pepstatin A the “block of plasminogen activator activity” value was “did not block”.
